“And” between values parts separate entries of the source, which are not always exact repeats. Equal entries are not always repeated. Inconclusive results and toxic doses are left out. No stated cut-off is given here; in the data, active means T/C of 150% or more; inactive means T/C below 125%.
System: L1210 leukemia ip in BDF1 mice, survival T/C
Assay: NCI In Vivo Anticancer Drug Screen. Data for tumor model L1210 Leukemia (intraperitoneal) in B6D2F1 (BDF1) mice
Settings: endpoint: mean survival time, higher = longer survival
How it was run: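 Read-out is survival time, reported as the treated-group measurement over the vehicle-control measurement.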

[1] = dose: 100.0 mg/kg/injection, schedule: Q01DX009 (ip), vehicle: saline with Tween-80
[2] = dose: 100.0 mg/kg/injection, schedule: Q04DX002 (ip), vehicle: saline with Tween-80
[3] = dose: 100.0 mg/kg/injection, schedule: Q04DX003 (ip), vehicle: saline with Tween-80
[4] = dose: 200.0 mg/kg/injection, schedule: Q01DX009 (ip), vehicle: saline with Tween-80
[5] = dose: 200.0 mg/kg/injection, schedule: Q04DX002 (ip), vehicle: saline with Tween-80
[6] = dose: 200.0 mg/kg/injection, schedule: Q04DX003 (ip), vehicle: saline with Tween-80
[7] = dose: 400.0 mg/kg/injection, schedule: Q01DX009 (ip), vehicle: saline with Tween-80
[8] = dose: 400.0 mg/kg/injection, schedule: Q04DX002 (ip), vehicle: saline with Tween-80
[9] = dose: 400.0 mg/kg/injection, schedule: Q04DX003 (ip), vehicle: saline with Tween-80
[10] = dose: 50.0 mg/kg/injection, schedule: Q01DX001 (ip), vehicle: carboxymethylcellulose (CMC)
[11] = dose: 100.0 mg/kg/injection, schedule: Q01DX001 (ip), vehicle: carboxymethylcellulose (CMC)
[12] = dose: 400.0 mg/kg/injection, schedule: Q01DX001 (ip), vehicle: carboxymethylcellulose (CMC)
[13] = dose: 200.0 mg/kg/injection, schedule: Q01DX001 (ip), vehicle: carboxymethylcellulose (CMC)
[14] = dose: 100.0 mg/kg/injection, schedule: Q01DX009 (ip), vehicle: Klucel (hydroxypropylcellulose) (HPC)
[15] = dose: 200.0 mg/kg/injection, schedule: Q01DX009 (ip), vehicle: Klucel (hydroxypropylcellulose) (HPC)
[16] = dose: 400.0 mg/kg/injection, schedule: Q01DX009 (ip), vehicle: Klucel (hydroxypropylcellulose) (HPC)
[17] = dose: 100.0 mg/kg/injection, schedule: Q04DX003 (ip), vehicle: Klucel (hydroxypropylcellulose) (HPC)
[18] = dose: 200.0 mg/kg/injection, schedule: Q04DX003 (ip), vehicle: Klucel (hydroxypropylcellulose) (HPC)
[19] = dose: 400.0 mg/kg/injection, schedule: Q04DX003 (ip), vehicle: Klucel (hydroxypropylcellulose) (HPC)

Measured: T/C

O=C(Nc1ccc(Cl)cc1[N+](=O)[O-])OCC1CC2C=CC1C2 (centres undefined)
inactive: dose: 100.0 mg/kg/injection, schedule: Q01DX001 (ip), vehicle: saline with Tween-80 94 % of control and 87 % of control | [1] 94 % of control and 98 % of control | [2] 96 % of control and 97 % of control | [3] 94 % of control and 98 % of control | dose: 200.0 mg/kg/injection, schedule: Q01DX001 (ip), vehicle: saline with Tween-80 93 % of control and 102 % of control | [4] 100 % of control | [5] 97 % of control and 100 % of control | [6] 98 % of control and 101 % of control | dose: 400.0 mg/kg/injection, schedule: Q01DX001 (ip), vehicle: saline with Tween-80 97 % of control and 101 % of control | [7] 100 % of control | [8] 93 % of control and 87 % of control | [9] 100 % of control and 91 % of control

Nc1ccc2c(c1)CCC2=O
inactive: [2] 98 % of control | [5] 102 % of control | [8] 90 % of control

COc1ccccc1CCCO
inactive: dose: 50.0 mg/kg/injection, schedule: Q01DX001 (ip), vehicle: saline 97 % of control | dose: 100.0 mg/kg/injection, schedule: Q01DX001 (ip), vehicle: saline 105 % of control | dose: 200.0 mg/kg/injection, schedule: Q01DX001 (ip), vehicle: saline 100 % of control | dose: 400.0 mg/kg/injection, schedule: Q01DX001 (ip), vehicle: saline 105 % of control

CN=C1c2ccccc2C2(c3ccccc3)C1N2C (centres undefined)
inactive: [1] 95 % of control | dose: 100.0 mg/kg/injection, schedule: Q04DX003 (ip), vehicle: saline sonified 121 % of control | [4] 94 % of control | dose: 200.0 mg/kg/injection, schedule: Q04DX003 (ip), vehicle: saline sonified 108 % of control | dose: 400.0 mg/kg/injection, schedule: Q04DX003 (ip), vehicle: saline sonified 101 % of control

CCN/C(C)=C\C(=O)OCC
inactive: [1] 95 % of control | [3] 96 % of control | [4] 111 % of control | [6] 107 % of control | [7] 95 % of control | [9] 105 % of control

CC(=O)NC(C)(C)Cc1ccccc1
inactive: [10] 89 % of control | [11] 94 % of control | [1] 111 % of control | [4] 101 % of control | [12] 94 % of control | [7] 86 % of control

CCOC(=O)N(O)c1ccc(/C=C/c2ccccc2)cc1
inactive: [11] 98 % of control | [13] 93 % of control | [12] 98 % of control

CCCCCC[P+](c1ccccc1)(c1ccccc1)c1ccccc1
inactive: dose: 6.25 mg/kg/injection, schedule: Q01DX009 (ip), vehicle: saline 99 % of control | dose: 6.25 mg/kg/injection, schedule: Q04DX003 (ip), vehicle: saline 101 % of control | dose: 12.5 mg/kg/injection, schedule: Q01DX009 (ip), vehicle: saline 107 % of control | dose: 12.5 mg/kg/injection, schedule: Q04DX003 (ip), vehicle: saline 100 % of control | dose: 25.0 mg/kg/injection, schedule: Q01DX009 (ip), vehicle: saline 98 % of control | dose: 25.0 mg/kg/injection, schedule: Q04DX003 (ip), vehicle: saline 103 % of control

C[C@@H]1CC2=CC(=O)CC[C@]2(C)[C@H]2CC[C@]3(C)[C@@H](O)CC[C@H]3[C@H]12
inactive: [1] 92 % of control | [4] 112 % of control | [7] 100 % of control

O=C(NCc1ccccc1Cl)Nc1ccccc1F
inactive: [14] 106 % of control | [15] 98 % of control | [16] 115 % of control

O=[N+]([O-])C(c1ccccc1)C(C/C(=N/O)c1ccccc1)c1ccccc1 (centres undefined)
inactive: dose: 100.0 mg/kg/injection, schedule: Q04DX002 (ip), vehicle: Klucel (hydroxypropylcellulose) (HPC) 100 % of control | dose: 200.0 mg/kg/injection, schedule: Q04DX002 (ip), vehicle: Klucel (hydroxypropylcellulose) (HPC) 92 % of control | dose: 400.0 mg/kg/injection, schedule: Q04DX002 (ip), vehicle: Klucel (hydroxypropylcellulose) (HPC) 96 % of control

CCN1CCC(CNc2cc(C)nc(/N=C(\N)Nc3cc(Cl)cc(Cl)c3)n2)C1 (centres undefined)
inactive: dose: 12.5 mg/kg/injection, schedule: Q04DX003 (ip), vehicle: Klucel (hydroxypropylcellulose) (HPC) 102 % of control | dose: 25.0 mg/kg/injection, schedule: Q04DX003 (ip), vehicle: Klucel (hydroxypropylcellulose) (HPC) 105 % of control | dose: 50.0 mg/kg/injection, schedule: Q04DX003 (ip), vehicle: Klucel (hydroxypropylcellulose) (HPC) 105 % of control

CN(C)c1ccc(/C=C/c2nc3ccc(Cl)cc3[nH]2)cc1
inactive: [17] 96 % of control | [18] 103 % of control | [19] 96 % of control

CCCCCCCCCC(=O)N(C)OC
inactive: [3] 87 % of control | [6] 88 % of control | [9] 92 % of control

O=C(/C=C/c1ccc2c(c1)OCO2)c1ccc2c(c1)OCO2
inactive: [14] 106 % of control | [17] 98 % of control | [15] 100 % of control | [18] 104 % of control | [16] 100 % of control | [19] 101 % of control

N/C=C(/NC(=O)c1ccccc1C(N)=O)C(=O)O
inactive: dose: 75.0 mg/kg/injection, schedule: Q01DX001 (ip), vehicle: saline 100 % of control | dose: 150.0 mg/kg/injection, schedule: Q01DX001 (ip), vehicle: saline 100 % of control | dose: 300.0 mg/kg/injection, schedule: Q01DX001 (ip), vehicle: saline 91 % of control

Cc1ccc(NC2=CC(=O)c3ccccc3C2=O)cc1
inactive: dose: 75.0 mg/kg/injection, schedule: Q01DX001 (ip), vehicle: carboxymethylcellulose (CMC) 93 % of control | dose: 150.0 mg/kg/injection, schedule: Q01DX001 (ip), vehicle: carboxymethylcellulose (CMC) 95 % of control

O=C(O)C1CCCCC1
inactive: [10] 96 % of control | [11] 98 % of control | [13] 104 % of control | [12] 96 % of control

COc1cc(OC)c(Br)c(OC)c1
inactive: dose: 100.0 mg/kg/injection, schedule: Q01DX009 (ip), vehicle: other 108 % of control | dose: 100.0 mg/kg/injection, schedule: Q04DX003 (ip), vehicle: saline 94 % of control | dose: 200.0 mg/kg/injection, schedule: Q01DX009 (ip), vehicle: other 93 % of control | dose: 200.0 mg/kg/injection, schedule: Q04DX003 (ip), vehicle: saline 96 % of control | dose: 400.0 mg/kg/injection, schedule: Q01DX009 (ip), vehicle: other 101 % of control | dose: 400.0 mg/kg/injection, schedule: Q04DX003 (ip), vehicle: saline 97 % of control

O=c1oc2ccccc2c(O)c1C(c1ccc2c(c1)CCC2)c1c(O)c2ccccc2oc1=O
inactive: [17] 92 % of control | [18] 100 % of control | [19] 92 % of control

CCOP(=O)(Oc1ccc([N+](=O)[O-])cc1)c1cccc(Cl)c1 (centres undefined)
inactive: dose: 5.0 mg/kg/injection, schedule: Q01DX001 (ip), vehicle: saline 102 % of control | dose: 10.0 mg/kg/injection, schedule: Q01DX001 (ip), vehicle: saline 111 % of control

Source: PubChem BioAssay AID248 (DTP/NCI, 2004)
